Measurements from patent US11980596B2 (priority 2017, dated 2024).

Columns and labels:
[1] = system: patients with TRD; experiment: Dissociation by CADSS in SPRAVATO clinical trials (label); type: in vivo, human
Excerpt: The most common psychological effects of SPRAVATO were dissociative or perceptual changes (including distortion of time, space and illusions), derealization and depersonalization (61% to 75% of SPRAVATO-treated patients developed dissociative or perceptual changes based on the Clinician Administered Dissociative Symptoms Scale) [see Adverse Reactions (6.1)]. Given its potential to induce dissociative effects, carefully assess patients with psychosis before administering SPRAVATO; treatment should be initiated only if the benefit outweighs the risk.
SPRAVATO can cause dissociative symptoms (including derealization and depersonalization) and perceptual changes (including distortion of time and space, and illusions). In clinical trials, dissociation was transient and occurred on the day of dosing. Dissociation was evaluated by adverse event reports and the Clinician-Administered Dissociative States Scale (CADSS) questionnaire. A CADSS total score of more than 4 indicates presence of dissociative symptoms, and such an increase to a score of 4 or more occurred in a higher number of patients on esketamine compared to placebo during the short-term trials (see Table 5).

[2] = system: subjects with MDD at imminent risk for suicide; experiment: Beck Scale for Suicidal Ideation (BSS) ([…]2001); type: in vivo, human
Description: The BSS is a 21-item self-reported instrument to detect and measure the severity of suicidal ideation in adults and adolescents aged 17 years and older. The BSS total score represents the severity of suicide ideation, and it is calculated by summing the ratings of the first 19 items; the total score ranges from 0 to 38, with a higher score representing greater suicide ideation. Increasing scores reflect increases in suicidal risk.

[3] = system: subjects with TRD; conditions: post dose
Description: (§1) The Clinician Administered Dissociative States Scale (CADSS) was measured prior to the start of each dose, at 40 minutes, and 1.5 hours postdose.

[4] = system: rat; experiment: 2-year rat carcinogenicity study; type: in vivo; conditions: once-daily intranasal 4.5, 15 and 45 mg/kg/day; 2 years
[5] = system: CYP2B6, CYP3A4, CYP1A2; experiment: CYP induction in human hepatocytes
[6] = system: elderly subjects with TRD; conditions: post dose
Description: as §1

[7] = esketamine 84 mg minus placebo, ANCOVA LOCF
[8] = esketamine 84 mg, LOCF, ITT, N = 34
[9] = esketamine 84 mg, LOCF, ITT, N = 34, negative change = improvement
[10] = esketamine 84 mg, predose Day 1, ITT, N = 34

CN[C@]1(c2ccccc2Cl)CCCCC1=O [esketamine, (S)-2-(2-chlorophenyl)-2-(methylamino)cyclohexanone]
Incidence of dissociation reported as severe in intensity ([1]; across studies): less than 4%
Dissociation symptoms typically resolved by ([1]; after dosing): ≤ 1.5 h
BSS total score: change vs placebo ([2]; 84 mg, Day 1: 4-hours postdose, Day 2 (DB), End Point (DB)): no statistically significant differences
BSS total score, change to Day 1 (DB): 4H, Diff. of LS Means (SE) [2, 7]: −2.3 (2.29)
BSS total score, change to Day 2 (DB), Diff. of LS Means (SE) [2, 7]: −1.9 (2.30)
BSS total score, change to End Point (DB), Diff. of LS Means (SE) [2, 7]: −1.7 (2.15)
BSS total score, Day 2 (DB), Median (Range) [2, 8]: 13.0 (0; 34)
BSS total score, End Point (DB), Mean (SD) [2, 8]: 4.7 (9.03)
BSS total score, End Point (DB), Median (Range) [2, 8]: 0.0 (0; 34)
BSS total score, Change from Baseline to Day 1 (DB): 4H, Median (Range) [2, 9]: −8.0 (−33; 8)
BSS total score, Change from Baseline to End Point (DB), Median (Range) [2, 9]: −21.0 (−33; 8)
BSS total score, Baseline (DB), Mean (SD) [2, 10]: 24.0 (5.45)
BSS total score, Baseline (DB), Median (Range) [2, 10]: 25.0 (8; 33)
Dissociative/perceptual change symptoms (CADSS) resolved by [3]: ≤ 1.5 h
Incidence of tumors [4]: did not increase the incidence of tumors
Induction of CYP1A2 ([5]; hepatocytes): do not induce
Induction of CYP2B6 and CYP3A4 ([5]; human hepatocytes): modest induction effects
Dissociative and perceptual change symptoms (CADSS) resolved by [6]: ≤ 1.5 h
